According to PubChem BioAssay (NCI):
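Protocol summary: plate cells (96-well), add compound at 5 concentrations, incubate 48 h, interpolate endpoints linearly. The concentration for full growth arrest is given as TGI.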

Key:
Test in all cases: NCI anticancer screen, dose series, 48 h
[1] = test system: HL-60(TB) leukemia
[2] = test system: DMS 114 small cell lung
[3] = test system: MOLT-4 leukemia
[4] = test system: SK-OV-3 ovarian
[5] = test system: SF-268 CNS
[6] = test system: IGROV1 ovarian
[7] = test system: SW-620 colon
[8] = test system: RXF 393 renal
[9] = test system: OVCAR-8 ovarian
[10] = test system: HOP-62 NSCLC
[11] = test system: SK-MEL-28 melanoma
[12] = test system: UACC-62 melanoma
[13] = test system: HCT-116 colon
[14] = test system: NCI-H226 lung
[15] = test system: U251 CNS
[16] = test system: 786-0 renal
[17] = test system: SN12C renal
[18] = test system: SNB-75 CNS
[19] = test system: A549 NSCLC
[20] = test system: CAKI-1 renal
[21] = test system: K-562 leukemia
[22] = test system: OVCAR-3 ovarian
[23] = test system: ACHN renal
[24] = test system: UO-31 renal
[25] = test system: NCI-H522 lung
[26] = test system: SNB-78 CNS
[27] = test system: COLO 205 colon
[28] = test system: HOP-18 NSCLC
[29] = test system: LXFL 529 NSCLC
[30] = test system: SR leukemia
[31] = test system: SF-539 CNS
[32] = test system: NCI-H460 lung
[33] = test system: TK-10 renal
[34] = test system: LOX IMVI melanoma
[35] = test system: MALME-3M melanoma
[36] = test system: DMS 273 small cell lung
[37] = test system: CCRF-CEM leukemia
[38] = test system: EKVX NSCLC
[39] = test system: SF-295 CNS
[40] = test system: RPMI-8226 leukemia
[41] = test system: OVCAR-4 ovarian
[42] = test system: KM12 colon
[43] = test system: DLD-1 colon
[44] = test system: HOP-92 NSCLC
[45] = test system: HCT-15 colon
[46] = test system: M19-MEL melanoma
[47] = test system: OVCAR-5 ovarian
[48] = test system: NCI-H23 lung
[49] = test system: M14 melanoma
[50] = test system: HT29 colon
[51] = test system: KM20L2 colon
[52] = test system: SNB-19 CNS
[53] = test system: SK-MEL-5 melanoma
[54] = test system: UACC-257 melanoma
[55] = test system: HCC-2998 colon
[56] = test system: XF 498 CNS
[57] = test system: A498 renal
[58] = test system: SK-MEL-2 melanoma
[59] = test system: RXF-631 renal

Cc1cc(C)c2c(c1C)CN1CN2Cc2c(C)c(C)cc(C)c21
TGI [1]: 46.3 µM
TGI [2]: 44.1 µM
TGI [3]: > 100 µM
TGI [4]: > 100 µM
TGI [5]: > 100 µM
TGI [6]: > 100 µM
TGI [7]: > 100 µM
TGI [8]: 93.8 µM
TGI [9]: > 100 µM
TGI [10]: > 100 µM
TGI [11]: > 100 µM
TGI [12]: > 100 µM
TGI [13]: > 100 µM
TGI [14]: > 100 µM
TGI [15]: > 100 µM
TGI [16]: > 100 µM
TGI [17]: > 100 µM
TGI [18]: 58.1 µM
TGI [19]: > 100 µM
TGI [20]: > 100 µM
TGI [21]: > 100 µM
TGI [22]: > 100 µM
TGI [23]: > 100 µM
TGI [24]: > 100 µM
TGI [25]: > 100 µM
TGI [26]: > 100 µM
TGI [27]: > 100 µM
TGI [28]: > 100 µM
TGI [29]: > 100 µM
TGI [30]: > 100 µM
TGI [31]: > 100 µM
TGI [32]: > 100 µM
TGI [33]: > 100 µM
TGI [34]: > 100 µM
TGI [35]: > 100 µM
TGI [36]: > 100 µM
TGI [37]: > 100 µM
TGI [38]: > 100 µM
TGI [39]: > 100 µM
TGI [40]: > 100 µM
TGI [41]: > 100 µM
TGI [42]: > 100 µM
TGI [43]: > 100 µM
TGI [44]: > 100 µM
TGI [45]: > 100 µM
TGI [46]: > 100 µM
TGI [47]: > 100 µM
TGI [48]: > 100 µM
TGI [49]: > 100 µM
TGI [50]: > 100 µM

COc1cc(C2c3cc4c(cc3[C@@H](OCCN)[C@H]3COC(=O)C23)OCO4)cc(OC)c1O (stereo partly specified)
TGI [1]: 0.0633 µM
TGI [2]: 0.162 µM
TGI [3]: 0.733 µM
TGI [4]: 1.48 µM
TGI [5]: 1.48 µM
TGI [6]: 4.55 µM
TGI [7]: 2.45 µM
TGI [8]: 2.35 µM
TGI [51]: 2.79 µM
TGI [9]: 2.61 µM
TGI [10]: 0.34 µM
TGI [11]: 2.37 µM
TGI [12]: 0.579 µM
TGI [13]: 4.89 µM
TGI [14]: 0.933 µM
TGI [15]: 0.401 µM
TGI [16]: 0.437 µM
TGI [17]: 0.562 µM
TGI [52]: 1.93 µM
TGI [18]: 2.43 µM
TGI [19]: 1.34 µM
TGI [20]: 1.52 µM
TGI [22]: 3.06 µM
TGI [23]: 2.01 µM
TGI [24]: 13.6 µM
TGI [25]: 0.596 µM
TGI [26]: > 58.9 µM
TGI [27]: 6.51 µM
TGI [28]: > 100 µM
TGI [29]: 7.75 µM
TGI [30]: 0.0693 µM
TGI [31]: 0.345 µM
TGI [32]: > 100 µM
TGI [33]: > 19.8 µM
TGI [53]: 1.49 µM
TGI [54]: 18.2 µM
TGI [55]: 2.1 µM
TGI [34]: 0.395 µM
TGI [35]: 1.59 µM
TGI [37]: 0.0409 µM
TGI [38]: 2.22 µM
TGI [39]: 0.543 µM
TGI [41]: 5.79 µM
TGI [43]: 6.76 µM
TGI [56]: 0.489 µM
TGI [44]: 1.43 µM
TGI [45]: 24.7 µM
TGI [46]: 2.14 µM
TGI [57]: 1.67 µM
TGI [47]: 3.6 µM
TGI [48]: 0.731 µM
TGI [58]: 0.883 µM
TGI [49]: 3.34 µM
TGI [50]: 2.69 µM

COc1ccc(C2C(Cl)C(=O)N2NC(=O)c2ccc(NC(C)=O)cc2)cc1OC (stereo unspecified)
TGI [1]: > 100 µM
TGI [3]: > 100 µM
TGI [4]: > 100 µM
TGI [5]: > 100 µM
TGI [6]: > 100 µM
TGI [7]: > 100 µM
TGI [9]: > 100 µM
TGI [10]: > 100 µM
TGI [11]: > 100 µM
TGI [12]: > 100 µM
TGI [13]: > 100 µM
TGI [14]: > 100 µM
TGI [15]: > 100 µM
TGI [52]: > 100 µM
TGI [18]: > 100 µM
TGI [19]: > 100 µM
TGI [21]: > 100 µM
TGI [22]: > 100 µM
TGI [23]: > 100 µM
TGI [24]: > 100 µM
TGI [25]: > 100 µM
TGI [27]: > 100 µM
TGI [28]: > 100 µM
TGI [29]: > 100 µM
TGI [30]: > 100 µM
TGI [31]: > 100 µM
TGI [32]: > 100 µM
TGI [33]: > 100 µM
TGI [53]: > 100 µM
TGI [54]: > 100 µM
TGI [55]: > 100 µM
TGI [35]: > 100 µM
TGI [37]: > 100 µM
TGI [39]: > 100 µM
TGI [40]: > 100 µM
TGI [42]: > 100 µM
TGI [44]: > 100 µM
TGI [46]: > 100 µM
TGI [47]: > 100 µM
TGI [48]: > 100 µM
TGI [58]: > 100 µM
TGI [50]: > 100 µM

Cc1ccc(S(=O)(=O)OC(C=O)C(O)C(O)COC(c2ccccc2)(c2ccccc2)c2ccccc2)cc1 (stereo unspecified)
TGI [2]: 33.8 µM
TGI [3]: 46.5 µM
TGI [4]: 28.4 µM
TGI [5]: 35.2 µM
TGI [6]: 29.5 µM
TGI [7]: 35.2 µM
TGI [8]: 30.3 µM
TGI [51]: 27.4 µM
TGI [9]: 26.5 µM
TGI [10]: 30.8 µM
TGI [11]: 35.9 µM
TGI [12]: 28.9 µM
TGI [13]: 30.5 µM
TGI [14]: 29.4 µM
TGI [15]: 27.9 µM
TGI [16]: 27.3 µM
TGI [17]: 28.9 µM
TGI [52]: 31.7 µM
TGI [18]: 29.4 µM
TGI [19]: 33.3 µM
TGI [20]: 36.6 µM
TGI [21]: 35 µM
TGI [22]: 28.1 µM
TGI [23]: 28.7 µM
TGI [24]: 30.4 µM
TGI [25]: 26.3 µM
TGI [29]: 25.7 µM
TGI [30]: 24.7 µM
TGI [31]: 30.8 µM
TGI [32]: 26.9 µM
TGI [53]: 28.9 µM
TGI [54]: 25.9 µM
TGI [55]: 24.3 µM
TGI [34]: 35.2 µM
TGI [35]: 33.7 µM
TGI [36]: 37.9 µM
TGI [38]: 34.5 µM
TGI [39]: 24.8 µM
TGI [40]: 36.9 µM
TGI [41]: 32.8 µM
TGI [42]: 24.2 µM
TGI [56]: 29.2 µM
TGI [45]: 27.1 µM
TGI [46]: 26.1 µM
TGI [57]: 32.6 µM
TGI [59]: 10.5 µM
TGI [47]: 34.7 µM
TGI [58]: 29.9 µM
TGI [49]: 30.1 µM
TGI [50]: 24.9 µM
